SMILES strings stand for the structures. “And” between values parts separate entries of the source, which are not always exact repeats. Identical values can stand only once. Records with an inconclusive call do not appear.

The subject of the test is BDF1 mice, colon carcinoma 38 sc, T/C %. In words: NCI In Vivo Anticancer Drug Screen. Data for tumor model Colon Carcinoma 38 (subcutaneous) in B6D2F1 (BDF1) mice. Conditions: endpoint: median tumor weight (est.), higher = larger tumour. The procedure, abridged: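 Transplantable tumor in mice; compound-treated vs vehicle-dosed controls. Measured survival or tumor size; value = T ÷ C.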

Where [1] appears, read: dose: 50.0 mg/kg/injection, schedule: Q07DX003 (ip), vehicle: saline.
[2] abbreviates: dose: 100.0 mg/kg/injection, schedule: Q07DX003 (ip), vehicle: saline.
The mark [3] stands for this setting: dose: 400.0 mg/kg/injection, schedule: Q07DX003 (ip), vehicle: saline.
Where [4] appears, read: dose: 6.25 mg/kg/injection, schedule: Q07DX003 (ip), vehicle: Klucel (hydroxypropylcellulose) (HPC).
The mark [5] stands for this setting: dose: 25.0 mg/kg/injection, schedule: Q07DX003 (ip), vehicle: Klucel (hydroxypropylcellulose) (HPC).
Where [6] appears, read: dose: 50.0 mg/kg/injection, schedule: Q07DX002 (ip), vehicle: Klucel (hydroxypropylcellulose) (HPC).
Setting [7] is: dose: 100.0 mg/kg/injection, schedule: Q07DX002 (ip), vehicle: Klucel (hydroxypropylcellulose) (HPC).
Setting [8] is: dose: 200.0 mg/kg/injection, schedule: Q07DX002 (ip), vehicle: Klucel (hydroxypropylcellulose) (HPC).
The mark [9] stands for this setting: dose: 25.0 mg/kg/injection, schedule: Q07DX002 (ip), vehicle: saline.
The mark [10] stands for this setting: dose: 50.0 mg/kg/injection, schedule: Q07DX002 (ip), vehicle: saline.
The mark [11] stands for this setting: dose: 100.0 mg/kg/injection, schedule: Q07DX002 (ip), vehicle: saline.
[12] abbreviates: dose: 200.0 mg/kg/injection, schedule: Q07DX002 (ip), vehicle: saline.
[13] abbreviates: dose: 12.5 mg/kg/injection, schedule: Q07DX002 (ip), vehicle: saline.
The mark [14] stands for this setting: dose: 25.0 mg/kg/injection, schedule: Q07DX002 (ip), vehicle: saline with Tween-80.
[15] abbreviates: dose: 50.0 mg/kg/injection, schedule: Q07DX002 (ip), vehicle: saline with Tween-80.
Setting [16] is: dose: 100.0 mg/kg/injection, schedule: Q07DX002 (ip), vehicle: saline with Tween-80.
Where [17] appears, read: dose: 200.0 mg/kg/injection, schedule: Q07DX002 (ip), vehicle: saline with Tween-80.
Setting [18] is: dose: 400.0 mg/kg/injection, schedule: Q07DX002 (ip), vehicle: saline with Tween-80.
The mark [19] stands for this setting: dose: 400.0 mg/kg/injection, schedule: Q07DX002 (ip), vehicle: saline.
[20] abbreviates: dose: 12.5 mg/kg/injection, schedule: Q07DX002 (ip), vehicle: saline with Tween-80.
The mark [21] stands for this setting: dose: 800.0 mg/kg/injection, schedule: Q07DX002 (ip), vehicle: saline.

Regarding `CCC(C)(OC(C)=O)C(=O)OC1C(=O)OC2CC3C(C)=CC(O)C(O)C3(C)C3C4(O)OCC23C1C(C)C4O` (stereo not drawn), the T/C was 80 % of control (dose: 0.12 mg/kg/injection, schedule: Q07DX002 (ip), vehicle: saline + alcohol); 48 % of control (dose: 0.25 mg/kg/injection, schedule: Q07DX002 (ip), vehicle: saline + alcohol); 79 % of control (dose: 0.5 mg/kg/injection, schedule: Q07DX002 (ip), vehicle: saline + alcohol); 43 % of control (dose: 1.0 mg/kg/injection, schedule: Q07DX002 (ip), vehicle: saline + alcohol); 75 % of control (dose: 2.0 mg/kg/injection, schedule: Q07DX002 (ip), vehicle: saline + alcohol); 105 % of control (dose: 4.0 mg/kg/injection, schedule: Q07DX002 (ip), vehicle: saline + alcohol).
As to `CC(=O)O[C@@H]1CO[C@H]2O[C@H]3[C@@H](C(C=O)=C[C@H](O)[C@@H]4C5=C(C(C)C)CC[C@]5(C)CC[C@@]34C)[C@@]2(O)C1=O`, the T/C reads like this: (dose: 1.5 mg/kg/injection, schedule: Q07DX002 (ip), vehicle: Klucel (hydroxypropylcellulose) (HPC)) 57 % of control; (dose: 3.0 mg/kg/injection, schedule: Q07DX002 (ip), vehicle: Klucel (hydroxypropylcellulose) (HPC)) 80 % of control; (dose: 6.0 mg/kg/injection, schedule: Q07DX002 (ip), vehicle: Klucel (hydroxypropylcellulose) (HPC)) 61 % of control; (dose: 12.0 mg/kg/injection, schedule: Q07DX002 (ip), vehicle: Klucel (hydroxypropylcellulose) (HPC)) 86 % of control.
As for `NC1=NCN(C2OC(CO)C(O)C2O)C(=O)N1` (stereo not drawn), the T/C was 57 % of control and 71 % of control (dose: 25.0 mg/kg/injection, schedule: Q07DX003 (ip), vehicle: saline); 60 % of control and 79 % of control under setting [1]; 54 % of control and 75 % of control under setting [2]; 57 % of control and 58 % of control under setting [3]; 94 % of control (dose: 600.0 mg/kg/injection, schedule: Q07DX003 (ip), vehicle: saline); 79 % of control (dose: 1000.0 mg/kg/injection, schedule: Q07DX003 (ip), vehicle: saline). Besides, the T/C reads like this: (dose: 1200.0 mg/kg/injection, schedule: Q07DX003 (ip), vehicle: saline) 63 % of control; (dose: 1400.0 mg/kg/injection, schedule: Q07DX003 (ip), vehicle: saline) 84 % of control; (dose: 1600.0 mg/kg/injection, schedule: Q07DX003 (ip), vehicle: saline) 47 % of control.
As for `CC(=O)OCC1OC(n2cc(CBr)nn2)C(OC(C)=O)C(OC(C)=O)C1OC(C)=O` (stereo not drawn), the T/C is 46 % of control under setting [4]; 120 % of control (dose: 6.25 mg/kg/injection, schedule: Q07DX003 (ip), vehicle: saline with Tween-80); 93 % of control (dose: 12.5 mg/kg/injection, schedule: Q07DX003 (ip), vehicle: Klucel (hydroxypropylcellulose) (HPC)); 67 % of control (dose: 12.5 mg/kg/injection, schedule: Q07DX003 (ip), vehicle: saline with Tween-80); 120 % of control under setting [5]; 90 % of control (dose: 25.0 mg/kg/injection, schedule: Q07DX003 (ip), vehicle: saline with Tween-80). Moreover, the T/C is, setting by setting: (dose: 50.0 mg/kg/injection, schedule: Q07DX003 (ip), vehicle: saline with Tween-80) 53 % of control; (dose: 100.0 mg/kg/injection, schedule: Q07DX003 (ip), vehicle: saline with Tween-80) 64 % of control.
Turning to `CN(C)C(=O)SC1=C(c2c(Cl)cccc2Cl)C(=O)c2ccccc21`, the T/C is, setting by setting: under setting [6], 76 % of control; under setting [7], 94 % of control; under setting [8], 86 % of control; (dose: 400.0 mg/kg/injection, schedule: Q07DX002 (ip), vehicle: Klucel (hydroxypropylcellulose) (HPC)) 82 % of control; (dose: 800.0 mg/kg/injection, schedule: Q07DX002 (ip), vehicle: Klucel (hydroxypropylcellulose) (HPC)) 91 % of control.
As for `O=C(O)C(CSC(c1ccccc1)(c1ccccc1)c1ccccc1)N=Cc1cccs1` (stereo not drawn), the T/C reads like this: under setting [9], 62 % of control; (dose: 25.0 mg/kg/injection, schedule: Q07DX002 (ip), vehicle: suspension in saline) 103 % of control; under setting [10], 101 % of control; (dose: 50.0 mg/kg/injection, schedule: Q07DX002 (ip), vehicle: suspension in saline) 84 % of control; under setting [11], 87 % of control; (dose: 100.0 mg/kg/injection, schedule: Q07DX002 (ip), vehicle: suspension in saline) 107 % of control. Moreover, the T/C was 51 % of control under setting [12] and 62 % of control (dose: 200.0 mg/kg/injection, schedule: Q07DX002 (ip), vehicle: suspension in saline).
For the molecule `O=NN(CCF)C(=O)NC1CCCCC1`, the T/C was 77 % of control (dose: 12.5 mg/kg/injection, schedule: Q07DX002 (ip), vehicle: Klucel (hydroxypropylcellulose) (HPC)) and 15 % of control under setting [6].
As for `CCCCCCCCCCCCCCCCCCCCCC(=O)Nc1ccn(C2OC(CO)C(O)C2O)c(=O)n1` (stereo not drawn), the T/C is, setting by setting: under setting [13], 80 % of control; under setting [14], 151 % of control; under setting [9], 119 % of control and 105 % of control; under setting [15], 172 % of control; under setting [16], 82 % of control; under setting [11], 52 % of control and 65 % of control. Moreover, the T/C is, setting by setting: under setting [17], 92 % of control; under setting [12], 52 % of control; under setting [18], 10 % of control; under setting [19], 29 % of control.
As to `Cc1cc(NC(=S)SCc2ccc3c(c2)OCO3)ccc1Cl`, the T/C under setting [7] was 111 % of control and the T/C under setting [8] is 82 % of control.
As for `COc1cc2cc3c4cc(OC)c(OC)cc4cc[n+]3c(C)c2cc1OC` (tested in a mixture with another compound), the T/C is, setting by setting: under setting [1], 164 % of control; under setting [2], 77 % of control and 96 % of control; under setting [3], 53 % of control.
As to `N#Cc1c(N)[nH]c2ccc(Sc3ccccc3)cc12`, the T/C is 78 % of control under setting [20], 97 % of control under setting [14], 63 % of control under setting [15] and 73 % of control under setting [16].
For `CCCC(=O)Nc1ncnc2c1ncn2C1OC2COP(=O)(O)OC2C1OC(=O)CCC` (stereo not drawn), the T/C under setting [9] was 84 % of control and 103 % of control; the T/C under setting [11] was 101 % of control and 106 % of control; the T/C under setting [21] is 75 % of control and 96 % of control.
In the case of `COC(=O)c1ccoc1`, the T/C runs as follows: under setting [9], 105 % of control; under setting [10], 94 % of control; under setting [12], 118 % of control; under setting [19], 112 % of control.
Turning to `O=[N+]([O-])c1nccn1CC(O)CO` (stereo not drawn), the T/C is 120 % of control under setting [11] and 105 % of control under setting [21].
With `[CH3][Sn]([CH3])([Cl])[S]CCN`, the T/C by setting is: under setting [13], 71 % of control; under setting [9], 47 % of control; under setting [10], 90 % of control.
`CC1(C)CC1(Br)Br`: the T/C was 155 % of control under setting [20]; 110 % of control and 96 % of control under setting [14]; 150 % of control under setting [15]; 124 % of control and 106 % of control under setting [16]; 155 % of control under setting [17]; 107 % of control under setting [18].
With `NC(CCl)=NCC12CC3CC(CC(C3)C1)C2`, the T/C is 72 % of control under setting [4]; 39 % of control under setting [5]; 94 % of control (dose: 100.0 mg/kg/injection, schedule: Q07DX003 (ip), vehicle: Klucel (hydroxypropylcellulose) (HPC)).
With `CCC1=C[C@H]2CN(CCc3c([nH]c4ccccc34)[C@@](C(=O)OC)(c3cc4c(cc3OC)N(C)[C@H]3[C@@](O)(C(=O)OC)[C@H](OC(C)=O)[C@]5(CC)C=CCN6CC[C@]43[C@@H]65)C2)C1`, the T/C (dose: 4.0 mg/kg/injection, schedule: Q07DX002 (ip), vehicle: water) was 75 % of control and 82 % of control.

Source of the values: PubChem BioAssay AID212 (DTP/NCI, 2004).
